We go through 5 molecules from US20090221488A1, “Certain Compositions and Methods of Treatment” (priority 2005, published 2009).

One series deals with HT29 tumor xenografts. In words: HT29 tumor xenograft efficacy, Compound A and bortezomib alone and combined. The conditions noted are these: for TGD, second arm, single agents: 1.5 mg/kg bortezomib and 10 mg/kg Compound A as printed; for mean tumor growth delay (TGD): 1.5 mg/kg bortezomib, 10 mg/kg Compound A, q4d×3; for mean time to endpoint (TTE), tumor volume=1000 mm^3: single agents (at MTD for bortezomib and Compound A). Type of series: in vivo, female athymic nu/nu mice. How it is done: (§1) Finally, tolerability and efficacy studies were conducted in which HT29 tumors maintained by serial passage were implanted subcutaneously in 9-10 weeks old female athymic no/nu mice (Harlan) Twenty-one (21) days post-implantation, when tumors reached 63-196 mm^3, mice were randomized into cohorts of […] with mean tumor volumes ˜100 mm^3. […] Drugs were delivered on the indicated schedules at 10 ml/kg by i.p. injection, except paclitaxel, which was administered by intravenous injection. Tumors were measured twice weekly and mice euthanized when tumor reached 1000 mm^3 or at day 59. Mice were weighed twice weekly. Acceptable toxicity was defined as body weight loss of <20% and ≦1 treatment-related death among ten treated animals. Toxicity exceeding these levels was considered above MTD.
(§2) Anti-tumor activity of sequenced (24 hour offset, q4d×3) and simultaneous administration was explored in HT29 tumor xenografts.
as §2

Series [1] is described as follows: Tolerability (MTD) of Compound A and bortezomib in nude mice. Format: in vivo. How it is done: as §1
Series [2] concerns murine P388 lymphocytic leukaemia. In words: P388 lymphocytic leukaemia model, dosing schedule study. Type of series: in vivo. The text has this: More frequent administration of the compound was poorly tolerated and dictated a lower total dose. […] At doses equivalent to either ¼ or ½ the MTD, % ILS and NCK were reduced.
The subject of series [3] is Colo205 colon carcinoma xenograft. In words: Colo205 xenograft tumor model. Format: in vivo, nude mice.
The subject of series [4] is MV 522 human lung carcinoma xenograft. Kind of series: MV 522 xenograft tumor model. The conditions noted are these: i.p. q4d×3, up to the MTD. Type of series: in vivo, nude mice.
Series [5] can be described thus: Preclinical toxicology in dogs, 1-hr IV infusion. Type of series: in vivo, dog. How it is done: Doses up to 40 mg/m^2 were tested in a single dose-range finding study and doses of 5, 10 and 20 mg/m^2 were tested in a 3-week (once weekly) toxicology study. Drug-related findings occurred at all dose levels, but severity and incidence were generally dose-proportional. […] In dogs given ≧10 mg/m^2, clinical observations of gastrointestinal (GI) disturbances included vomiting/retching, fecal abnormalities, hypoactivity, anorexia and body weight losses. […] Based on these findings, the highest non-severely toxic dose in the dog is 10 mg/m^2.

Series [6] in a line: Preclinical toxicology in rats, 1, 6 and 24-hr IV infusion. Format: in vivo, rat. The conditions noted are these: for dose at which mortality occurred: 24-hr infusion. The source says: Transient drug-related findings occurred at all doses, but severity and incidence were generally dose proportional and dependent on the duration of infusion. Most consistent findings included hematopoeitic toxicity (depletion in bone marrow and thymus and associated hematologic changes) and enteropathy (necrosis/regeneration of intestinal crypt epithelium and villus atrophy and body weight loss or decrease in body weight gain). Microscopic changes (necrosis, apoptosis and/or cellular degeneration) were also evident in liver, mammary glands, testes and epididymus, and at ≧36 mg/m^2, increased mitotic figures in many tissues. All drug-related toxicities completely reversed 2 weeks after dosing, with the exception of degenerative testicular changes at ≧18 mg/m^2. In the 1 to 6-hr infusion studies, there was no mortality, however based on the severity of hematopoietic and gastrointestinal toxicities, the MTD was 72 mg/m^2. When the infusion was increased to 24-hr, mortality occurred at 18 mg/m^2 after a single dose and at 12 mg/m^2 after repeated weekly dosing.

The subject of series [7] is rat, dog, rabbit and human blood. In words: In vitro hemolysis on mixing with blood. The source says:
Hemolysis was not observed in any of the in vivo studies, nor has it been observed in the ongoing Phase I trial.

A short description of a further series: In vitro Ames test. Type of series: cell-based. The text has this:
(§3) Positive findings are consistent with the expected pharmacology of Compound A.
On the technique in general: In the Ames test, an excess of revertant colonies over the control signals mutagenicity.

Another series deals with mouse lymphoma. In words: Mouse lymphoma mutagenicity assay. The conditions noted are these: in vitro mouse lymphoma mutagenicity assay. Type of series: cell-based.
Description: as §3

A short description of series [8]: In vivo rat micronucleus study. The conditions noted are these: all doses tested (≧3 mg/m^2 administered daily×2).
Description: as §3

The nature of series [9]: Dose-escalation Phase I study in patients with solid tumors. Format: in vivo. The source says: In this study, the ANC generally achieved a nadir at Day 7-8 and had completely recovered by Day 15.
The target of the next series is Mouse KSP (Mus musculus, UniProt Q6P9P6). Kind of series: Kinesin affinity, mouse KSP. Format: binding.
For a further series, the target named is Other kinesins. Kind of series: Kinesin affinity, other kinesins. Type of series: binding.
Another series concerns HT29. Kind of series: Cellular activity, HT29. Format: cell-based.
The subject of another series is SKOV3. Kind of series: Cellular activity, SKOV3. Type of series: cell-based.
Another series deals with Colo205. In words: Cellular activity, Colo205. Type of series: cell-based.
A further series has as its system MV522. In words: Cellular activity, MV522. Format: cell-based.
The subject of another series is MX1. In words: Cellular activity, MX1. Format: cell-based.
The test system of the next series is P388 (murine). Kind of series: Cellular activity, P388. Format: cell-based.
The test system of series [10] is broad spectrum of tumor cell lines. In words: Cytotoxic activity in tumor cell lines. Type of series: cell-based.
In series [11] the test system is HT 29 chemo-refractory colon carcinoma xenograft.
The subject of series [12] is MX-1 mammary carcinoma xenograft. The conditions noted are these: i.p. q4d×3.
Series [13] has as its target human P-glycoprotein (Pgp) (Homo sapiens, UniProt P08183). The conditions noted are these: MDCKII-MDR1 cells.
The test system of series [14] is MCF-7 human tumor xenograft.
Series [15] concerns SK-MES human tumor xenograft.
Series [16] deals with H69 human tumor xenograft.
In series [17] the test system is OVCAR-3 human tumor xenograft.
Series [18] deals with MDA-MB-231 human tumor xenograft.
The subject of series [19] is A2780 human tumor xenograft.
Series [20] concerns the target P-glycoprotein (Pgp, MDR1) (Homo sapiens, UniProt P08183). Kind of series: in vitro.
The mark [21] stands for this setting: i.p., q4d×3 schedule, at the MTD.
[22] abbreviates: rat, 1 to 6-hr infusion studies.
The mark [23] stands for this setting: Q21 days, patients with solid tumors.

pIC50: −log10 of the molar value. Read-outs that look alike come from different tables or passages of the source.

Chain of human P-glycoprotein (Pgp) (P08183 whole entry): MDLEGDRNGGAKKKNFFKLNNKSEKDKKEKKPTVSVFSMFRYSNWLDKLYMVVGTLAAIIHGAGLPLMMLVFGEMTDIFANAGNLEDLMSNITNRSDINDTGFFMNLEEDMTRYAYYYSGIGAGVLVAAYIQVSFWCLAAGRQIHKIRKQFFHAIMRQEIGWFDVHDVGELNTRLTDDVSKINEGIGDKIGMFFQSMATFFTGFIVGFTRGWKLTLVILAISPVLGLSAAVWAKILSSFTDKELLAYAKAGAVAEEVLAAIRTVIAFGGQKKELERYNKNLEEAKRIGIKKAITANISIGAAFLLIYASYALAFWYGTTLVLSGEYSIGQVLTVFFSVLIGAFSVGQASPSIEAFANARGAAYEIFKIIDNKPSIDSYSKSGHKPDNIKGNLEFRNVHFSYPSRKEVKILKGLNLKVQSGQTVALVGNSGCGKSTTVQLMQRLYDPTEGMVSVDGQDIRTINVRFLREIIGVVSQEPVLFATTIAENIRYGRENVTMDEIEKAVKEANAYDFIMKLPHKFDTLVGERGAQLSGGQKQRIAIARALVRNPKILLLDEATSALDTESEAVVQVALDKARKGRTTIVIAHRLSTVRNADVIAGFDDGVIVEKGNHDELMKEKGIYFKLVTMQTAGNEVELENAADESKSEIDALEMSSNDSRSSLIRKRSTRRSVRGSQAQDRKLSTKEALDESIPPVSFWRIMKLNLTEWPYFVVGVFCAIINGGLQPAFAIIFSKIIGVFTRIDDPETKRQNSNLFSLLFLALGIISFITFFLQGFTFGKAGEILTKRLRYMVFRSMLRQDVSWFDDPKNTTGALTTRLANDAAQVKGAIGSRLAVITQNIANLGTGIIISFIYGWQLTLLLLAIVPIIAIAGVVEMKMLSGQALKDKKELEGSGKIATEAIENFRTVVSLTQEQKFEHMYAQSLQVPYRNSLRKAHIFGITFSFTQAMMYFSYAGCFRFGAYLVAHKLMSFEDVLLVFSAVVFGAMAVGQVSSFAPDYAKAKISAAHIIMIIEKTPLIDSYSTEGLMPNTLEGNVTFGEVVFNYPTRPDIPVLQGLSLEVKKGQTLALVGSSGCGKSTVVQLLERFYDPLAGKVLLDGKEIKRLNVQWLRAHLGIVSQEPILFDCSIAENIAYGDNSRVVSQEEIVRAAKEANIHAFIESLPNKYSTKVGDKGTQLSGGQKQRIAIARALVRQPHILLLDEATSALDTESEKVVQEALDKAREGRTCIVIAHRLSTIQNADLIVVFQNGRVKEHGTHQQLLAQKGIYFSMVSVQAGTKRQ
Chain of Mouse KSP (Q6P9P6 whole entry): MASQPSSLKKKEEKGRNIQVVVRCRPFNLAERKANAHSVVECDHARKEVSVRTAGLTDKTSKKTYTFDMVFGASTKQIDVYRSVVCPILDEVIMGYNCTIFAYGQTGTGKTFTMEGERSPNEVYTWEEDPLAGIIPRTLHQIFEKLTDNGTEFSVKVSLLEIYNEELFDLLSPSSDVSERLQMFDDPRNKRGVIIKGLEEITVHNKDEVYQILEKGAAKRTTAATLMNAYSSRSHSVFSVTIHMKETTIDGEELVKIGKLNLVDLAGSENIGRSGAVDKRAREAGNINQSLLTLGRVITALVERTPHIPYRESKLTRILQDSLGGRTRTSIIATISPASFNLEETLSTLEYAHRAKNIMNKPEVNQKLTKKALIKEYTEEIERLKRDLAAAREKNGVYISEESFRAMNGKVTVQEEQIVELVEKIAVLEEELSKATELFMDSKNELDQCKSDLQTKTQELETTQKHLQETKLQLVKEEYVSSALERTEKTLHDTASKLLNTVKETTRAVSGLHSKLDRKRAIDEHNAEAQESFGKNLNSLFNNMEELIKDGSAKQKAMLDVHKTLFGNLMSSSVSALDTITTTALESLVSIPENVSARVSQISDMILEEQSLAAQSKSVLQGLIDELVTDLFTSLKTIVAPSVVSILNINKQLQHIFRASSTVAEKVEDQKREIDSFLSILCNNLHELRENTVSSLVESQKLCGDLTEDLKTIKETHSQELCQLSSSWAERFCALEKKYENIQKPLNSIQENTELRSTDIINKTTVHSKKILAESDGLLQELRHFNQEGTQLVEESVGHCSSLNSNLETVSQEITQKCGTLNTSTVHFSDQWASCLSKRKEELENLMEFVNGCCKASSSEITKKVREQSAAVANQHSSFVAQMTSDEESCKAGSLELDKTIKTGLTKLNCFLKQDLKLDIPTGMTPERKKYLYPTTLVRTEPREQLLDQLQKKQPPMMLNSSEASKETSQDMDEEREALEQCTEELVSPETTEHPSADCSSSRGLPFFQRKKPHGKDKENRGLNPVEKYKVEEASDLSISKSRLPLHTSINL
Chain of P-glycoprotein (Pgp, MDR1) (P08183 whole entry): as the sequence (P08183 whole entry) above

Take `CC(C)C[C@H](NC(=O)[C@H](Cc1ccccc1)NC(=O)c1cnccn1)B(O)O` [bortezomib]: in the series on HT29 tumor xenografts, the “TGD, second arm, single agents” value turned out to be 9 days; the “mean tumor growth delay (TGD)” value is listed as 9 days; the “mean time to endpoint (TTE), tumor volume=1000 mm^3” value (“mean time to endpoint (TTE)” for short) is “did not differ significantly from untreated control animals”. In series [1] (female, athymic nu/nu (nude), mouse, in vivo, ip, read-out: single agent MTD (q4d×3)), the MTD was about 1.5 mg/kg.

One may read the Ki as a measure of affinity in units of concentration, obtained from inhibition or displacement. A high value points to a looser hold on the target. As usually defined, the pIC50 is the IC50 on a negative log10 scale, so that one unit is a factor of ten. Low readings indicate a large IC50, high ones a small IC50. In the case of `Cc1ccc(C(=O)N(CCCN)[C@@H](c2oc3cc(Cl)ccc3c(=O)c2Cc2ccccc2)C(C)C)cc1` [Compound A, N-(3-Aminopropyl)-N—[(R)-1-3-benzyl-7-chloro-4-oxo-4H-chromen-2-yl-2-methyl-propyl]-4-methyl-benzamide], the “% ILS and NCK” value in series [2] (doses equivalent to ¼ or ½ the MTD) is “reduced”. For the same molecule, the “mean (±SEM) % increase in lifespan (ILS)” value in series [2] (setting [21]) came to 156±10%. Moreover, the “net cell kill (NCK)” value in series [2] (setting [21]) is 2.9±0.5 logs. Besides, the “single agent activity against advanced xenograft” value was “complete regressions” in series [3] (Colo205); “tumor growth delay” in [11] (HT-29); “complete and partial regressions” in series [14]; “complete and partial regressions” in series [15]; “complete and partial regressions” in [16]; “complete and partial regressions” in series [17]. Besides, the “single agent activity against advanced xenograft” value in [18] and in series [19] was “tumor growth delay” throughout. In addition, the tumor regression entry in [3] (i.p. q4d×3, at the MTD) is “complete tumor regressions”; in [3] (i.p. q4d×3, doses as low as 25% of the MTD, majority of animals), “Partial tumor regressions”. The tumor response entry in series [4] was “refractory”. In addition, in series [5] (Day 4 after a single 1-hr IV infusion of 20 mg/m^2), the “animals euthanized in moribund condition” value is listed as “One of 10 dogs”. The “dose with clinical observations of gastrointestinal (GI) disturbances” value in [5] (dog, 1-hr IV infusion) is on record as at least 10 mg/m^2. In addition, the “highest non-severely toxic dose” value in series [5] (dog, 1-hr IV infusion, once weekly for 3 weeks) was determined as 10 mg/m^2. The “dose with testicular germinal epithelial abnormalities” value in [5] (male dogs) was found to be 20 mg/m^2. Further, the “dose with degenerative testicular changes not reversed 2 weeks after dosing” value in series [6] (rat IV infusion) is given as at least 18 mg/m^2. For the same molecule, the “dose with increased mitotic figures in many tissues” value in series [6] (rat IV infusion) was at least 36 mg/m^2. The molecule further registered an MTD in series [6] (setting [22]) of 72 mg/m^2. Besides, the mortality entry in [6] (setting [22]) is “no mortality”. For the same molecule, the “dose at which mortality occurred” value in [6] (rat, after a single dose) is 18 mg/m^2; in [6] (rat, after repeated weekly dosing) it was 12 mg/m^2. In addition, in [7] (at 0.3 mg/mL), the hemolysis result is “no hemolysis was observed”. This molecule also yielded a hemolytic concentration in series [7] (mixed with rat, dog, rabbit and human blood) of at least 0.6 mg/mL. In addition, the genotoxic activity entry in the series “In vitro Ames test” and with mouse lymphoma was “did not show evidence of genotoxic activity” throughout. Besides, the micronucleus result in series [8] is given as “positive results as an aneugen”. Besides, the “patients with dose-limiting toxicity (Grade 3 hypophosphatemia, not thought to be drug-related)” value in series [9] (4 mg/m^2) is recorded as 1 of the first 6 patients. In [9] (Phase I, Q21 days), the “day of ANC nadir” value was 7 to 8 days. In addition, the “day of ANC recovery” value in series [9] (Phase I, Q21 days) was at most 15 days. The “neurotoxicity, mucositis, thrombocytopenia, alopecia, and nausea vomiting requiring pre-medication” value in series [9] (Phase I, one hour infusion every 21 days) was “have not been observed”. In series [9] (setting [23]), the “most commonly occurring dose-limiting toxicity” value was “Prolonged (≧5 days), reversible neutropenia”. Further, the “presumptive maximum tolerated dose (MTD)” value in series [9] (setting [23]) stood at 4 mg/m^2. The “dose eliciting Grade 4 neutropenia lasting ≧5 days” value in [9] (single one hour infusion every 21 days) is at least 5 mg/m^2. Besides, the results for the Ki at Mouse KSP and on Other kinesins were 0.12 nM and over 70000 nM, respectively. Further, the negative-log IC50 (pIC50) in the series with HT29 was 8.72; with SKOV3 it was 9.70; in the series on Colo205 it was 10.15; in the series with MV522, 8.77; in the series with MX1, 10.22; with P388 (murine), 7.84. In [10], the cytotoxic activity result is “less than 2 nM”. The “TGD, second arm, single agents” value in the series on HT29 tumor xenografts was 12 days. In the series with HT29 tumor xenografts, the “mean tumor growth delay (TGD)” value came to 24 days. The “mean time to endpoint (TTE)” value in the series on HT29 tumor xenografts is “did not differ significantly from untreated control animals”. Moreover, the “single agent MTD (q4d×3)” value in series [1] (i.p.) is reported as “about 10 mg/kg”. The “tumor growth delay (T-C1000)” value is 25 days in series [11] (i.p. q4d×3, time differential to tumor volume 1000 mm^3) and 10 days in [12] (time differential to tumor volume 1000 mm^3). For the same molecule, the tumor regressions result in series [12] is “did not induce any tumor regressions”. The Pgp substrate entry in [13] was “is a Pgp substrate”. Besides, the “average P7.4” value in series [13] is 2.5 ×10⁻⁶ cm/s. Besides, in [13], the passive membrane permeability is under 5 ×10⁻⁶ cm/s.

In the case of `COc1cc2c(cc1OC)CN(CCc1ccc(NC(=O)c3cccc4c(=O)c5cccc(OC)c5[nH]c34)cc1)CC2` [GF120918A], the activity at 2 μM in [20] was about 30%.

For the molecule `CC(=O)O[C@H]1C(=O)[C@@]2(C)[C@H]([C@H](OC(=O)c3ccccc3)[C@]3(O)C[C@H](OC(=O)[C@H](O)[C@@H](NC(=O)c4ccccc4)c4ccccc4)C(C)=C1C3(C)C)[C@]1(OC(C)=O)CO[C@@H]1C[C@@H]2O` [paclitaxel], the “mean time to endpoint (TTE)” value in the series with HT29 tumor xenografts amounted to 59 days.

For the molecule `Cc1ccc(C(=O)N(CCCN)[C@@H](c2nc3cc(Cl)ccc3c(=O)n2Cc2ccccc2)C(C)C)cc1` [ispinesib, reference compound], the figures for the Ki on Mouse KSP and on Other kinesins were 0.76 nM and over 70000 nM, respectively. Moreover, the negative-log IC50 (pIC50) in the series with HT29 (Homo sapiens, HT-29) is 8.92; with SKOV3 (Homo sapiens, SK-OV-3), 9.00; in the series with Colo205 (Homo sapiens, COLO 205) it was 9.74; in the series on MV522 (MV522), 8.01; in the series with MX1 (Homo sapiens, MX1), 8.55; in the series on P388 (murine) (Mus musculus, P388), 7.71.
